According to patent publication EP1209147A1, “CARBOXYLIC ACID DERIVATIVES AND ADHESION MOLECULE INHIBITORS CONTAINING THE SAME AS THE ACTIVE INGREDIENT” (TORAY INDUSTRIES, INC., priority 1999, dated 2001):

What was measured:
[1] = molecular target: VLA-4-IgG chimeric protein (Homo sapiens, UniProt P05556+P13612); experiment: Inhibition of binding between CS-1 peptide and VLA-4-IgG chimeric protein; conditions: binding of VLA-4-IgG chimeric protein to immobilized CS-1 peptide; compound preincubated 20 minutes; read-out: Inhibition Activity(IC50 : nM)
Experimental: The adhesion-inhibition activity of the compound of the present invention against VLA-4 may be examined by using an adhesion assay system in which the adhesion between VLA-4-expressing cells such as Ramos cells and Jurkat cells, and fibronectin or a fragment thereof, e.g., a peptide containing CS-1 sequence (Gly Pro Glu Ile Leu Asp Val Pro Ser Thr) (hereinafter referred to as "CS-1 peptide") immobilized on an immunoplate is measured. Alternatively, a binding assay system in which the binding of the VLA-4 protein to the fibronectin or a fragment thereof such as CS-1 peptide immobilized on an immunoplate is measured may be employed. In the present invention, the inhibition assay of the compound is preferably measured by a binding assay system which measures the binding between a chimeric protein of VLA-4 and immunoglobulin (VLA-4-IgG chimeric protein) and CS-1 peptide (Japanese patent application No. H9-234544), although the method of measuring the inhibition activity is not restricted to this method. The term "VLA-4-IgG chimeric protein" herein means the heterodimer composite molecule in which a chimeric protein between α4 of VLA-4 and immunoglobulin (hereinafter referred to as "VLAα4·IgG chimeric protein), and a chimeric protein between β1 of VLA-4 and immunoglobulin (hereinafter referred to as "VLAβ1·IgG chimeric protein) are associated. As the immunoglobulin, although heavy chain or light chain of IgG, IgM or the like may be employed, in the present invention, IgG1 heavy chain is used. When testing the inhibition activity of the compound, it is preferred to preliminarily mix the VLA-4-IgG chimeric protein and the test compound.
Effects of Compounds for Inhibition of Binding Between CS-1 Peptide and VLA-4-IgG
A conjugate between a peptide (Gys Leu His Gly Pro Glu Ile Leu Asp Val Pro Ser Thr) containing CS-1 sequence and rabbit IgG (Sigma) was prepared by the reported method (Humphries, M.J. et al. J. Biol.Chem., 262, 6886-6892 (1987)). The obtained conjugate was diluted with phosphate buffer (hereinafter referred to as "PBS(-)", NISSUI) and the resulting solution was placed in wells of a 96-well immunoplate (NUNC) in an amount of 100 µl/well, followed by leaving the solution to stand at 4°C for 16 hours to immobilize the conjugate.
Then each well was washed twice with PBS(-), and a PBS solution containing 1% BSA heat-treated at 80°C for 10 minutes was placed in each well in an amount of 300 µl/well. The immunoplate was left to stand at 4°C for 3 hours, and then the solution in each well was removed by aspiration.
After preliminarily allowing each compound to react with VLA-4-IgG chimeric protein (100 µl) at room temperature for 20 minutes, the resulting solution was allowed to react with CS-1 peptide in each well at 30°C for 3 hours. Thereafter, non-bound VLA-4-IgG chimeric protein was removed by aspiration and each well was washed twice with 0.1% BSA-containing TBS buffer (150 mM NaCl,25 mM Tris-HCI, 1 mM MnCl2 pH 7.4). To the bound VLA-4-IgG chimeric protein, biotin-labeled anti-human IgG antibody (Vector) as an primary antibody was added, and then avidin-labeled horse radish peroxidase (Sigma) as a secondary antibody was added, and the reaction was allowed to occur. After the reaction, o-phenylenediamine as a substrate was added to color the solution, and the absorbance at 490 nm was measured. From the absorbance, the binding-inhibition activity of each test compound was determined.

[2] = system: Mouse Peritonitis Induced by Ragweed Pollen; experiment: Mouse peritonitis induced by ragweed pollen; type: in vivo, BLAB/c mouse; conditions: 400 mg/kg intravenously, totally 5 times; 48 hours after induction
Experimental: Ragweed pollen extract 1:100 (TORII PHARMACEUTICAL) was diluted by 10-fold with physiological saline, and the resulting solution was used as an antigen for sensitization. This antigen solution was subcutaneously administered to each BLAB/c mouse (female, 6 weeks old, JAPAN CHARLES RIVER) in an amount of 100 µl each on DAY-0 and DAY-1, and 200 µl each on DAY-6, DAY-8 and DAY-14 to obtain sensitized mice, DAY-0 being the day of the initial sensitization. On DAY-20, 200 µl of the antigen solution was intraperitoneally administered to induce peritonitis. After 48 hours from the induction, each mouse was sacrificed by bleeding to death, and 3 ml of heparin-containing PBS(-) was intraperitoneally injected. Celiotomy was performed and washing solution of the abdominal cavity was recovered. The leukocytes contained in the recovered washing solution were subjected to site spin and a smear specimen was prepared. After staining the specimen by May-Giemsa staining method, the leukocytes were grouped and counted under microscope to determine the number of eosinophils. Compound No. 140 used as the test compound was dissolved in physiological saline and the solution was intravenously administered totally 5 times, i.e., at 16 hours before induction, at the time of induction, at 8 hours, 24 hours and 32 hours after induction, at a dose of 400 mg/kg per each time. […]

VLA-4-IgG chimeric protein, sequence (P13612 with tags, fused parts or gaps limits assumed): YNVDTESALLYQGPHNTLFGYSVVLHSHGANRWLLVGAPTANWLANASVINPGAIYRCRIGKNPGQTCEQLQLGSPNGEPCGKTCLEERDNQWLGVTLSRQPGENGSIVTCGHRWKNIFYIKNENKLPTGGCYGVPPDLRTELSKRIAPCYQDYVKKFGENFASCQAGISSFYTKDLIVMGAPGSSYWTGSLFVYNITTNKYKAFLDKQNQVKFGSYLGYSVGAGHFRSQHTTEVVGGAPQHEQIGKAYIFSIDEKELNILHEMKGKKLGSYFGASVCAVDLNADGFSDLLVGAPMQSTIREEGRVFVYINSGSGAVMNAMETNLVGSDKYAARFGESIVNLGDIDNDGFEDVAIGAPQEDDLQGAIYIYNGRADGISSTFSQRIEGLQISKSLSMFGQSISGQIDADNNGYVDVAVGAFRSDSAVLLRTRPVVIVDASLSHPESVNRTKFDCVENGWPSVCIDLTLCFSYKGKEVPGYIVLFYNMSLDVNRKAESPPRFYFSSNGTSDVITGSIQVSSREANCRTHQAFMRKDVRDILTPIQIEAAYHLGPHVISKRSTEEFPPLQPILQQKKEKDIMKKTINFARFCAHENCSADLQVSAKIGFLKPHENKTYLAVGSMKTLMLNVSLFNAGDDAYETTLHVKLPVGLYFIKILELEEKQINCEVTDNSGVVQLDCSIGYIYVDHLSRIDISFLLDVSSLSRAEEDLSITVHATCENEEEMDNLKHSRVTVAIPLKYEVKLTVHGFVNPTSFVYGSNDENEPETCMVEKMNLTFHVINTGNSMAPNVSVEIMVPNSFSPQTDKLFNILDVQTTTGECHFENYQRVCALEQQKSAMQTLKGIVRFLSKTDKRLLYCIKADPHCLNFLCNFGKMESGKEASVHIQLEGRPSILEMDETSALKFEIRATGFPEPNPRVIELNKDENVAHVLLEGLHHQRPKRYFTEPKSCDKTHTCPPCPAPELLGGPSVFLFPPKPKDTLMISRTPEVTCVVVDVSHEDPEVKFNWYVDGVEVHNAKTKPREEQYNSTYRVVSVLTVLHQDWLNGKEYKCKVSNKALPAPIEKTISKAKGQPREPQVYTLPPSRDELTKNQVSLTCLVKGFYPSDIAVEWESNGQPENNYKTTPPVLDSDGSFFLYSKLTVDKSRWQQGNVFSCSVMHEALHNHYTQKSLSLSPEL
VLA-4-IgG chimeric protein, sequence (P05556 with tags, fused parts or gaps limits assumed): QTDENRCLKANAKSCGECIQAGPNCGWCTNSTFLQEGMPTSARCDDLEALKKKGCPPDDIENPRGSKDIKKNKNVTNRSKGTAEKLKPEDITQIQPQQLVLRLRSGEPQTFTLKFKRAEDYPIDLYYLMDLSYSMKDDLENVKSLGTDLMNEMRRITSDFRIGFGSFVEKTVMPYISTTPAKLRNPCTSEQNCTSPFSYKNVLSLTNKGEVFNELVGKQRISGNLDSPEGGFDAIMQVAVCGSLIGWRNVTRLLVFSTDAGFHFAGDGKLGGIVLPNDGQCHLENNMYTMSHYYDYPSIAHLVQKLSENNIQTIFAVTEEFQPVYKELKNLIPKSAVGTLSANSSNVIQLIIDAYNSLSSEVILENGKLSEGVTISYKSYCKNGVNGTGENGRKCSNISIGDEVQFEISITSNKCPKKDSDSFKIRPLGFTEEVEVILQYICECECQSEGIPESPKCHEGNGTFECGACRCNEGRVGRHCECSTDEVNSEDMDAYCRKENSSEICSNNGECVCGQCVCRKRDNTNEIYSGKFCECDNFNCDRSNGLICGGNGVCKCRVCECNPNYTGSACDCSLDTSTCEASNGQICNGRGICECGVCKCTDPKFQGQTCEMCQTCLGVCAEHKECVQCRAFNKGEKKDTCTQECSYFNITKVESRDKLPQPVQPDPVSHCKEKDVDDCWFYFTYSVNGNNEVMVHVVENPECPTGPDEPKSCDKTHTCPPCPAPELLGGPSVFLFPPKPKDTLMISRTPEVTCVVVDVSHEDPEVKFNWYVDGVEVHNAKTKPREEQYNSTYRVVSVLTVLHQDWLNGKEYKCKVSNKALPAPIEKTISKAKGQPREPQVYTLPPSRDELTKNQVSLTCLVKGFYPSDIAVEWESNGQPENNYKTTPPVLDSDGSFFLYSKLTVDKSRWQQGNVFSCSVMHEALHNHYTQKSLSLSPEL

Structure (SMILES): CC(C)(C)CC(=O)N[C@@H](CSSC[C@H](NC(=O)CC(C)(C)C)C(=O)O)C(=O)O [Example 140, 3-((2(R)-carboxy-2(R)-(3,3-dimethylbutanoylamino)ethyl)disulfanyl)-2(R)-(3,3-dimethylbutanoylamino)propionic acid]
- IC50 [1]: 1800 nM
- inhibition rate of accumulation of leukocytes, especially eosinophils, to abdominal cavity [2]: 31.1%
